One experiment deals with RPMI-8226. Briefly: NCI-60 screen (SRB). The settings on record: RPMI-8226 (Leukemia). It counts as cell-based. A digest of the protocol: (§1)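 RPMI 1640/5% FBS/2 mM Gln; 24 h attach; Tz plates TCA-fixed at dosing; 5 conc. (10-fold or ½-log), 48 h, 37 °C, 5% CO2; SRB, A515; GI50/TGI/LC50 from Tz, C, Ti.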
For a further experiment, the system named is OVCAR-4. Nature of the experiment: NCI-60 screen (SRB). The format is cell-based. The note with it: OVCAR-4 (Ovarian). A digest of the protocol:
as §1

The next experiment deals with SK-MEL-28 cell line. Briefly: Combination of XIX-3 and Zelboraf, Bliss independence model. The format is cell-based, human. The note with it: XIX-3 associated with Zelboraf, 72 h. The method, then: The human melanoma cell line SK-MEL-28 was cultured in Minimum Essential Medium (MEM) supplemented with 10% Fetal Bovine Serum and 1% Penicillin-Streptomycin and maintained at 37° C. with 5% CO2.
SK-MEL-28 cells were plated at 2,500 cells per well onto 96-well plates in 90 μL of media per well and were allowed to grow overnight before the assay. XIX-3 and Zelboraf, a compound used for treatment for BRAF V600E mutation-positive metastatic melanoma, were added at different concentrations (combinations of five concentrations of XIX-3 and six concentrations of Zelboraf) to each well, and cell cultures were incubated for 72 h. […] Cell outgrowth was measured using a […] Aqueous One Solution Cell Proliferation Assay (Promega) and a TECAN Sunrise plate reader.
In each experiment, each point represents the average of triplicates in cell culture. The effects of drug-drug combinations are evaluated in the Bliss independence model (Prichard M. N. and Shipman C. Jr. Antivir. Res. 1990 (14) 181-205; Prichard, M. L. et al. Antimicrob Agents Chemother 1993 (37) 540-545). The theoretical additive effect is calculated from the dose-response curves of individual compounds by the equation: Z=X+Y(1−X) (7) Where: • Z represents the total inhibition produced by the combination of drugs X and Y. • X and Y represent the inhibition produced by drugs X and Y alone, respectively. […]

The test system of another experiment is Capan-2. Briefly: Cell viability assay, pancreatic cancer cell lines. The format is cell-based. The settings on record: Homo sapiens; Capan-2 (Pancreas); 48 h. The protocol:
MiaPaCa-2, Panc-1 cells were grown in Dulbecco's modified eagle's medium (DMEM) (Gibco) supplemented with 10% fetal bovine serum (FBS), while BxPC-3, Capan-1, Capan-2 cells were grown in Roswell Park Memorial Institute 1640 (RPMI 1640) (Gibco) supplemented with 10% FBS. Gemcitabine (Gemzar) was purchased from Lilly France S.A.S (Suresnes, France). (3-(4,5-dimethylthiazol-2-yl)-2,5diphenyltetrazolium bromide, MTT) was purchased from Sigma-Aldrich.
BxPC-3, MiaPaCa-2, Panc-1 cells were seeded into a 96-well plate at 10,000 10,000 15,000 cells per well respectively, while Capan-1 and Capan-2 cells at 20,000 cells per well and allowed to adhere overnight. Then the culture medium was removed and replaced with fresh media alone as control or containing various concentrations of different compounds. In dose-dependent assay, the cells were treated with compound XIX-3 at the concentration varying from 0.1 μM to 100 μM while the cells being cultured by fresh media alone were used as control. After 48 h treatment, the number of remained viable cells was determined by (3-(4,5-dimethylthiazol-2-yl)-2,5diphenyltetrazolium bromide, MTT) colorimetric assay (see Sigma Aldrich protocol and Riss T. L. et al. Cell Viability Assays in Assay Guidance Manual 2013 ppl.). All experiments were done in duplicate and repeated two independent times.

[1] abbreviates: Homo sapiens, read-out: LC50 (the source's name).

With `CCN(CC)C1CCN(C(C)c2cc(-c3ccccc3)nc3ccccc23)CC1.Cl.Cl` (stereo not shown) [XIX-3, 2-phenyl-4-{1-[4-(N,N-diethylamino)piperidin-1-yl]-eth-1-yl}quinoline dihydrochloride], the figures for the GI50 in the experiment with RPMI-8226 (Homo sapiens) and in the experiment with OVCAR-4 (Homo sapiens) were 2 µM and 11 µM, respectively. In addition, the values for the CC50 in the experiment with RPMI-8226 (setting [1]) and in the experiment with OVCAR-4 (setting [1]) were 26 µM and 52 µM, respectively. The TGI in the experiment on RPMI-8226 was 5 µM; in the experiment on OVCAR-4, 24 µM. Besides, the “Growth percent at 10 μM” value with RPMI-8226 (10 μM) is “++++ (cell growth % < 20)”; in the experiment on OVCAR-4 (10 μM) it was “++ (cell growth 40 > % < 60)”. Besides, in the experiment on SK-MEL-28 cell line, the “Combination effect on cell viability (Bliss independence model)” value is “additive effect (between −20% to +20% indicates additive effect)”. The EC50 in the experiment on Capan-2 amounted to 32 µM.

As a reminder, the GI50 is the concentration at which growth is held to half of that of the control. A high value points to less potent growth inhibition. The term TGI denotes the concentration giving total growth inhibition. Low readings indicate greater sensitivity of the cells, high ones lower sensitivity of the cells. As a reminder, the EC50 is the concentration at which the effect is half-maximal. Low readings indicate a more potent agent, high ones a less potent agent.

(Values after patent US10179770B2, “Quinolines derivatives as novel anticancer agents” (GENOSCIENCE PHARMA, priority 2013, dated 2019).)
